Legend:
[1] = target: T1, recombinant human ARG2 (Homo sapiens, UniProt P78540); test: Arginase enzymatic assay in vitro, recombinant human ARG2 (colorimetric urea detection); type: biochemical; settings: recombinant human arginase 2; read-out: IC50 Inh rhARG2
T1 construct: purchased BPS Bioscience 71659
T1 sequence (P78540 23-354): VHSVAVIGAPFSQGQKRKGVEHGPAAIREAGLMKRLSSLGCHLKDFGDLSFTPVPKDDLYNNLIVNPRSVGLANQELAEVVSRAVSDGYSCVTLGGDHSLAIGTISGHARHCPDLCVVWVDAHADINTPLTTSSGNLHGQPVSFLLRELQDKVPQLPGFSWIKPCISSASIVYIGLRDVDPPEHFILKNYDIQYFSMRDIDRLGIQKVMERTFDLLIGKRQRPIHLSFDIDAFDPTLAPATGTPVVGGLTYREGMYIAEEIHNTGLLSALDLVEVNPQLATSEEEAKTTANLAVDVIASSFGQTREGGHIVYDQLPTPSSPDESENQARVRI
From the text: (§1) Arginase catalyzes the hydrolysis of L-arginine into L-ornithine and urea. Urea amount produced by this reaction can be detected using a colorimetric assay and used as an indirect measurement of arginase activity. An adapted protocol from (Baggio, R., et al., J Pharmacol Exp Ther, 1999. 290(3): p. 1409-16) was used for the testing the ability of exemplary compounds of the invention to inhibit arginase enzymes from a variety of sources including recombinant human ARG1 and 2, lysates of human red blood cells (RBC) and intact murine macrophages, as described below.
(§2) Compounds of the invention were prepared from powder as 10 mM stock solutions in DMSO and stored in presence of N2 neutral atmosphere at −80° C. For IC50 determination and just before the assay, exemplary compounds were successively diluted to get the following concentrations: 210, 70, 21, 7, 2.1, 0.7, 0.21, 0.07, 0.021, 0.007, 0.0021 and 0.0007 μM (i.e., final concentrations in the wells of 30, 10, 3, 1, 0.3, 0.1, 0.03, 0.01, 0.003, 0.001, 0.0003, 0.0001 μM).
(§3) Assays were run in clear flat bottom 96-well plates (Nunclon, Cat. No. #167008) adding in each well the following solutions in this order: (1) 10 μl of Tris-HCl solution supplemented with 0.1% bovine serum albumin (BSA) containing 1.563 μg/ml recombinant human ARG1 (R&D System, Cat. No. #5868-AR-010), (2) 30 μl of Tris-HCl buffer containing 10 mM MnCl2 and (3) 10 μL of a pre-dilution of each test article or DMSO (vehicle). Compounds were allowed to interact with the enzyme-cofactor complex pre-incubating the plate at 37° C. for 30 min. To start the reaction, 20 μl of 50 mM L-arginine (Sigma Aldrich Cat. #A5006-100G) were added to each well in exception of the blank reaction (see below). All reactions were allowed to happen for 1 h at 37° C. To detect the urea production, reactions were stopped by adding 200 μl of a mixture of reagent A (4 mM o-phthalaldehyde in 50 mM Boric Acid, 1 M Sulfuric Acid, 0.03% Brij-35 (w/v)) and reagent B (4 mM N-(1-naphthyl)ethylenediamine in 50 mM Boric Acid, 1 M Sulfuric Acid, 0.03% Brij-35 (w/v)) in equal proportion. Color product was developed for 1 h at room temperature (RT) protected from light and then absorbance at 520 nm was measured using a Multifunction Microplate Reader (Synergy 4, Bioteck). Blank reactions were carried out by adding the L-arginine substrate only after the addition of mixture A-B. All reactions were carried out in duplicates.
(§4) The inhibition of urea production was calculated subtracting the absorbance from the blank reaction (zero enzymatic urea production) to the absorbance from all reactions and it was expressed as the percentage of the absorbance from the reaction containing the test article with respect to the absorbance from vehicle reaction (maximum of urea production).
For testing inhibitory activity over recombinant human arginase II, 10 μl of Tris-HCl solution supplemented with 0.1% BSA containing 1.5 μg/ml recombinant human ARG2 (BPS Bioscience, Cat. No. #71659) was used instead of ARG1.

[2] = target: T2, recombinant human ARG1 (Homo sapiens, UniProt P05089); test: Arginase enzymatic assay in vitro, recombinant human ARG1 (colorimetric urea detection); type: biochemical; settings: recombinant human arginase 1; read-out: IC50 Inh rhARG1
T2 construct: purchased R&D System 5868-AR-010
T2 sequence (P05089 1-322): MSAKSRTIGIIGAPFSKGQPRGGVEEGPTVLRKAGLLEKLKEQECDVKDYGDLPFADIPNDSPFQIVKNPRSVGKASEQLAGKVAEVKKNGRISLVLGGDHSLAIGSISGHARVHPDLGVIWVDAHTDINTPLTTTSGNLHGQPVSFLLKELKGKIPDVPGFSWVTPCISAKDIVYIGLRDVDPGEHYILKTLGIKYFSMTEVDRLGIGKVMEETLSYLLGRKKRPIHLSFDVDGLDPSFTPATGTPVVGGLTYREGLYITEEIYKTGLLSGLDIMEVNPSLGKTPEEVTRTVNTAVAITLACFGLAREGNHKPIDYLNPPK
From the text: as §1, §2, §3, §4

| Compound | IC50 [1] [nM] | IC50 [2] [nM] |
| --- | --- | --- |
| NC(CCCCB(O)O)(C(=O)O)C1CCN(C2CCc3ccccc32)CC1 (single isomer, unassigned) [Compound 3, 2-amino-6-borono-2-(1-(2,3-dihydro-1H-inden-1-yl)piperidin-4-yl)hexanoic acid] | > 5000 | > 5000 |
| NC(CCCCB(O)O)(C(=O)O)C1CCN(C2CCCc3ccccc32)CC1 (single isomer, unassigned) [Compound 4, 2-amino-6-borono-2-(1-(1,2,3,4-tetrahydronaphthalen-1-yl)piperidin-4-yl)hexanoic acid] | 500 to 5000 | < 500 |
| NC(CCCCB(O)O)(C(=O)O)C1CCN(C2CCCc3ccccc32)CC1 (single isomer, unassigned) [Compound 6, 2-amino-6-borono-2-(1-(1,2,3,4-tetrahydronaphthalen-1-yl)piperidin-4-yl)hexanoic acid] | > 5000 | > 5000 |
| CC(c1ccccc1)N1CCC(C(N)(CCCCB(O)O)C(=O)O)CC1 (single isomer, unassigned) [Compound 11, 2-amino-6-borono-2-(1-(1-phenylethyl)piperidin-4-yl)hexanoic acid] | > 5000 | > 5000 |
| NC(CCCCB(O)O)(C(=O)O)C1CCN(C2CCCCc3ccccc32)CC1 (single isomer, unassigned) [Compound 84, 2-amino-6-borono-2-(1-(6,7,8,9-tetrahydro-5H-benzo[7]annulen-5-yl)piperidin-4-yl)hexanoic acid] | 500 to 5000 | < 500 |
| NC(CCCCB(O)O)(C(=O)O)C1CCN(C2CCc3ccccc32)CC1 (centres unmarked) [Compound 1, 2-amino-6-borono-2-(1-(2,3-dihydro-1H-inden-1-yl)piperidin-4-yl)hexanoic acid] | 500 to 5000 | < 500 |
| CC(c1ccccc1)N1CCC(C(N)(CCCCB(O)O)C(=O)O)CC1 (centres unmarked) [Compound 9, 2-amino-6-borono-2-(1-(1-phenylethyl)piperidin-4-yl)hexanoic acid] | 500 to 5000 | < 500 |
| CC1(C)OB(CCCCC(N)(C(=O)O)C2CCN(C3CCCc4ccccc43)CC2)OC1(C)C (centres unmarked) [Compound 77, 2-amino-2-(1-(1,2,3,4-tetrahydronaphthalen-1-yl)piperidin-4-yl)-6-(4,4,5,5-tetramethyl-1,3,2-dioxaborolan-2-yl)hexanoic acid] | 500 to 5000 | < 500 |

More lines, now with the values ahead:

| IC50 [1] [nM] | IC50 [2] [nM] | Compound |
| --- | --- | --- |
| < 500 | < 500 | NC(CCCCB(O)O)(C(=O)O)C1CCN(C2CCc3ccccc32)CC1 (single isomer, unassigned) [Compound 2, 2-amino-6-borono-2-(1-(2,3-dihydro-1H-inden-1-yl)piperidin-4-yl)hexanoic acid] |
| < 500 | < 500 | NC(CCCCB(O)O)(C(=O)O)C1CCN(C2CCCc3ccccc32)CC1 (single isomer, unassigned) [Compound 5, 2-amino-6-borono-2-(1-(1,2,3,4-tetrahydronaphthalen-1-yl)piperidin-4-yl)hexanoic acid] |
| < 500 | < 500 | CC(c1ccccc1)N1CCC(C(N)(CCCCB(O)O)C(=O)O)CC1 (single isomer, unassigned) [Compound 10, 2-amino-6-borono-2-(1-(1-phenylethyl)piperidin-4-yl)hexanoic acid] |
| < 500 | < 500 | NC(CCCCB(O)O)(C(=O)O)C1CCN(C2CCc3cc(Cl)ccc32)CC1 (single isomer, unassigned) [Compound 14, 2-amino-6-borono-2-[1-(5-chloroindan-1-yl)-4-piperidyl]hexanoic acid] |
| < 500 | < 500 | NC(CCCCB(O)O)(C(=O)O)C1CCN(C2CCCc3cc(Cl)ccc32)CC1 (single isomer, unassigned) [Compound 17, 2-amino-6-borono-2-(1-(6-chloro-1,2,3,4-tetrahydronaphthalen-1-yl)piperidin-4-yl)hexanoic acid] |
| < 500 | < 500 | CNC(CCCCB(O)O)(C(=O)O)C1CCN(C2CCCc3ccccc32)CC1 (single isomer, unassigned) [Compound 79, 6-borono-2-(methylamino)-2-(1-(1,2,3,4-tetrahydronaphthalen-1-yl)piperidin-4-yl)hexanoic acid] |
| < 500 | < 500 | NC(CCCCB(O)O)(C(=O)O)C1CCN(C2CCCc3ccc(F)cc32)CC1 (single isomer, unassigned) [Compound 83, 2-amino-6-borono-2-(1-(7-fluoro-1,2,3,4-tetrahydronaphthalen-1-yl)piperidin-4-yl)hexanoic acid] |
| < 500 | < 500 | NC(CCCCB(O)O)(C(=O)O)C1CCN(C2CCc3cc(C(F)(F)F)ccc32)CC1 (single isomer, unassigned) [Compound 85, 2-amino-6-borono-2-[1-[5-(trifluoromethyl)indan-1-yl]-4-piperidyl]hexanoic acid] |

Source: patent US20220017541A1, “INHIBITORS OF ARGINASE” (Black Belt Tx Ltd, priority 2018, published 2022)
